The values that follow come from patent US12280141B2, “Liquid depot for non-invasive sustained delivery of agents to the eye” (CHIBI, INC., priority 2018, dated 2025).

Several values for one entry are separate records, joined by “and”; a condition that tells them apart may be missing. Identical values can stand only once. Entries after “also recorded” stand apart in the source; their conditions may differ.

Data set [1] in a line: Dexamethasone in eye tissues and fluids after one 25 μL depot instillation. The conditions noted are these: for concentration at 3 day / concentration at 8 day / concentration at 8 h / concentration at 24 h / concentration at 14 day / concentration at 21 day: female, New Zealand White, rabbit, topical, 25 μL, Dexamethasone; for concentration at 3 day: Day 3; for concentration at 8 day: Day 8; for concentration at 24 h: Hr 24.

Data set [2] is described as follows: Dexamethasone level in anterior chamber after 50 μL depot (GLP study). The class given is in vivo, New Zealand White (NZW) rabbits. As to conditions: both sexes, New Zealand White, rabbit, topical. The procedure: In a good laboratory practices (GLP) study, depots of 50 μL were instilled into each eye of New Zealand White (NZW) rabbits (either sex, 3.5-4 kilo), and the anterior chamber tapped subsequently and assayed by LCMS.

Data set [3] is described as follows: Vitamin E acetate in rabbit aqueous humor samples. The class given is in vivo. As to conditions: days 1, 4, 7, 12; quantification limit 1.0 ng/mL.
For data set [4] the following is noted: single 50 μL instillation.
Data set [5] is described as follows: In vitro release of prednisolone from liquid depot, samples 5A to 5F. It counts as physicochemical. The procedure:
Six samples, 5A to 5F, each weighing at 48.2 mg, 48.5 mg, 48.1 mg, 49 mg, 51.7 mg, and 49.2 mg, respectively (average weight=49.1 mg; SD=1.34; % RSD=2.7) were incubated in 50 ml saline at 40° C. At each time point, 25 ml from each of the six samples was withdrawn for sampling and replaced with 25 ml saline.

The nature of data set [6]: In vitro release of gatifloxacin from liquid depot, samples Gati-90A to F. It counts as physicochemical. The conditions noted are these: for Gatifloxacin cumulative % released, Avg: Avg of 90-A to 90-F. The procedure: The in vitro sustained release study of gatifloxacin was carried out using a Cabone ring (Wilton Brands LLC, Woodridge, Ill. 60517) of 12.7 mm. […] [At each time point, 20 ml from each of the six samples was withdrawn for sampling and replaced with 20 mL saline. The amount of gatifloxacin released was determined by UPLC. The release profile of gatifloxacin-containing liquid depot formulation is shown in Table 15, Table 16, and FIG. 14; gatifloxacin was released for at least 24 hours.

Data set [7] can be described thus: Diclofenac in tear samples after 50 μL liquid depot. As to conditions: one-time application of 50 μL. The class given is in vivo, NZW rabbits. Here is the method: A formulation of the NSAID diclofenac was prepared by thoroughly mixing 10% diclofenac acid in a 90% liquid depot mixture of 80:20 tocopheryl acetate:Miglyol®. A one-time application of 50 μL of this formulation was instilled into the eyes of NZW rabbits, and then tear samples were collected and analyzed as described herein.

Setting [8] is: aqueous humor, Aqueous Humor Average (±SD), one 25 μL instillation of 10% dexamethasone depot.
Setting [9] is: conjunctiva, Conjunctiva Average (±SD), one 25 μL instillation.
The mark [10] stands for this setting: cornea, Cornea Average (±SD), one 25 μL instillation.
The mark [11] stands for this setting: iris/ciliary body, Iris/Ciliary Body Average (±SD), one 25 μL instillation.
Setting [12] is: one instillation of the liquid depot.

`C[C@@H]1C[C@H]2[C@@H]3CCC4=CC(=O)C=C[C@]4(C)[C@@]3(F)[C@@H](O)C[C@]2(C)[C@@]1(O)C(=O)CO` [Dexamethasone, dexamethasone]: the “Dexamethasone, Iris/Ciliary Body Tissue” value in data set [1] (Day 14, per eye, one 25 μL instillation) was 1.21 ng/g and 2.00 ng/g; in data set [1] (Hr 8, per eye, one 25 μL instillation), 83.0 ng/g and 86.0 ng/g and 150 ng/g and 113 ng/g and 157 ng/g. Further, the “Dexamethasone, Iris/Ciliary Body Homog.” value was 0.241 ng/mL and 0.399 ng/mL in data set [1] (Day 14, per eye, one 25 μL instillation, LOQ 0.2 ng/mL); “BLOQ” in data set [1] (Day 21, per eye, one 25 μL instillation, LOQ 0.2 ng/mL); 16.6 ng/mL and 17.2 ng/mL and 30.0 ng/mL and 22.5 ng/mL and 31.4 ng/mL in data set [1] (Hr 8, per eye, one 25 μL instillation, LOQ 0.2 ng/mL). Moreover, in data set [1] (Day 21, per eye, one 25 μL instillation of 10% dexamethasone depot, LOQ 0.5 ng/mL), the “Dexamethasone, Aqueous Humor Conc.” value is “BLOQ”. Besides, the concentration at 3 day in data set [1] (setting [8]) worked out at 2.5 ng/mL; in data set [1] (setting [9]), 372 ng/g; in data set [1] (setting [10]), 176 ng/g; in data set [1] (setting [11]), 9.72 ng/g; in data set [2] (Day 3, 50 μL depot 10:72:18), 6.48 ng/mL. Further, the concentration at 8 day in data set [1] (setting [8]) was 7.53 ng/mL; in data set [1] (setting [9]) it was 1630 ng/g; in data set [1] (setting [10]) it was 284 ng/g; in data set [1] (setting [11]), 8.15 ng/g. For the same compound, the concentration at 8 h in data set [1] (aqueous humor, Aqueous Humor Average (±SD), Hr 8, one 25 μL instillation of 10% dexamethasone depot) was 44.8 ng/mL; in data set [1] (conjunctiva, Conjunctiva Average (±SD), Hr 8, one 25 μL instillation) it was 1660 ng/g; in data set [1] (cornea, Cornea Average (±SD), Hr 8, one 25 μL instillation) it was 560 ng/g; in data set [1] (iris/ciliary body homogenate, Iris/Ciliary Body Homog., Hr 8, per eye, one 25 μL instillation, LOQ 0.2 ng/mL), 30.2 ng/mL; in data set [1] (iris/ciliary body, Iris/Ciliary Body Average (±SD), Hr 8, one 25 μL instillation), 123 ng/g; in data set [1] (iris/ciliary body, Iris/Ciliary Body Tissue, Hr 8, per eye, one 25 μL instillation), 151 ng/g. The concentration at 24 h in data set [1] (setting [8]) stood at 2.47 ng/mL; in data set [1] (setting [9]), 598 ng/g; in data set [1] (setting [10]) it was 260 ng/g; in data set [1] (setting [11]) it was 12.3 ng/g. Besides, the concentration at 14 day in data set [1] (aqueous humor, Aqueous Humor Conc., Day 14, per eye, one 25 μL instillation of 10% dexamethasone depot, LOQ 0.5 ng/mL) was 0.677 ng/mL; in data set [1] (conjunctiva, Conjunctiva Average (±SD), Day 14, one 25 μL instillation), 53.8 ng/g; in data set [1] (cornea, Cornea Average (±SD), Day 14, one 25 μL instillation), 12.2 ng/g; in data set [1] (iris/ciliary body homogenate, Iris/Ciliary Body Homog., Day 14, per eye, one 25 μL instillation, LOQ 0.2 ng/mL), 0.239 ng/mL; in data set [1] (iris/ciliary body, Iris/Ciliary Body Average (±SD), Day 14, one 25 μL instillation), 1.47 ng/g; in data set [1] (iris/ciliary body, Iris/Ciliary Body Tissue, Day 14, per eye, one 25 μL instillation), 1.2 ng/g. In addition, the concentration at 21 day in data set [1] (conjunctiva, Conjunctiva Average (±SD), Day 21, one 25 μL instillation) was found to be 28.2 ng/g; in data set [1] (cornea, Cornea Average (±SD), Day 21, one 25 μL instillation) it was 8.14 ng/g; in data set [1] (iris/ciliary body, Iris/Ciliary Body Average (±SD), Day 21, one 25 μL instillation) it was 3.88 ng/g. The “Time dexamethasone was in the aqueous humor” value in data set [1] (setting [12]) is given as “at least 8 days”. Besides, the “Time dexamethasone was in the conjunctiva, cornea, and iris/ciliary body” value in data set [1] (setting [12]) is “at least 21 days”. In data set [2] (Day 1, 50 μL depot 10:72:18), this compound yielded a concentration at 1 day of 6.68 ng/mL. The compound further showed a concentration at 5 day in data set [2] (Day 5, 50 μL depot 10:72:18) of 4.14 ng/mL. The compound also gave a concentration at 7 day in data set [2] (Day 7, 50 μL depot 10:72:18) of 4.08 ng/mL. The concentration at 10 day in data set [2] (Day 10, 50 μL depot 10:72:18) is 3.2 ng/mL.

For `CC(=O)Oc1c(C)c(C)c2c(c1C)CC[C@@](C)(CCC[C@H](C)CCC[C@H](C)CCCC(C)C)O2` [Vitamin E acetate, [(2R)-2,5,7,8-tetramethyl-2-[(4R,8R)-4,8,12-trimethyltridecyl]chroman-6-yl]acetate], in data set [3], the “Vitamin E acetate in aqueous humor samples” value is “not observed; also recorded: No detectable”. Also, the “Time vitamin E acetate was present in the tears of rabbit eyes” value in data set [4] is reported as “at least 12 days”.

Take `C[C@]12C=CC(=O)C=C1CC[C@@H]1[C@@H]2[C@@H](O)C[C@@]2(C)[C@H]1CC[C@]2(O)C(=O)CO` [Prednisolone, prednisolone]: the “Prednisolone cumulative % released, Avg” value in data set [5] (Day 0, Avg of 5A to 5F) is on record as 0%. Besides, the “Average concentration of prednisolone released” value in data set [5] (Day 1) is 32.6 µg/mL; in data set [5] (Day 2), 39.4 µg/mL; in data set [5] (Day 3) it was 38.1 µg/mL; in data set [5] (Day 4), 30.6 µg/mL; in data set [5] (Day 5), 19.6 µg/mL. The “Amount of prednisolone released, Avg” value in data set [5] (Day 1, Avg of 5A to 5F) came to 1630.3 µg; in data set [5] (Day 2, Avg of 5A to 5F) it was 1153.1 µg; in data set [5] (Day 3, Avg of 5A to 5F), 922.4 µg; in data set [5] (Day 4, Avg of 5A to 5F) it was 577.5 µg; in data set [5] (Day 5, Avg of 5A to 5F), 72.3 µg.

With `COc1c(N2CCNC(C)C2)c(F)cc2c(=O)c(C(=O)O)cn(C3CC3)c12` (stereo not shown) [Gatifloxacin, gatifloxacin], the “Average concentration of gatifloxacin released” value in data set [6] (1 Hour) stood at 38.9 µg/mL; in data set [6] (3 Hours), 61.9 µg/mL; in data set [6] (24 Hours) it was 53.4 µg/mL. In addition, the “Gatifloxacin cumulative % released, Avg” value in data set [6] (1 Hour) was 32.3%; in data set [6] (3 Hours), 67.5%; in data set [6] (24 Hours) it was 86.2%. Besides, the “Time gatifloxacin was released in vitro” value in data set [6] (40 mL saline at 40° C.) is on record as “at least 24 hours”.

As to `O=C(O)Cc1ccccc1Nc1c(Cl)cccc1Cl` [diclofenac, diclofenac acid], the “Time diclofenac was detected in the rabbit tear film” value in data set [7] was not below 7 days.
